Legend:
[1] = test system: Panc 05.04 cells (pancreatic cancer cells; Q699H and K700E mutations in SF3B1); assay: Cell viability assay (CellTiter-Glo, 72 hr), Panc 05.04 cells; type: cell-based; conditions: Panc 05.04 cells (mutant SF3B1); for Emax: maximum achievable response in tested dose range, negative value = cellular lethality, read-out: Panc 05.04 (mt SF3B1 cells) Emax (%); for GI50: read-out: Panc 05.04 (mt SF3B1 cells), GI50
Procedure, shortened: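 Viability was read as ATP content (CellTiter-Glo) after 72 hr compound exposure of Panc 05.04 cells at 37 °C, nine concentrations, 0.1% DMSO. Percentage growth was referenced to time-zero and vehicle wells and plotted against concentration to obtain Emax; negative Emax denotes cell killing.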

[2] = test system: WiDr-R cells (colon cancer cells; chemically-induced SF3B1 R1074H mutant); assay: Cell viability assay (CellTiter-Glo, 72 hr), resistant WiDr-R cells (counter-screen); type: cell-based; conditions: WiDr-R cells (SF3B1 R1074H mutation, resistant); read-out: WiDr-R GI50
Procedure, shortened: (§1)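 Cells at 2000/well were exposed to 9 compound concentrations (0.1% DMSO) in duplicate or triplicate for 72 hr at 37 °C. ATP was read by CellTiter-Glo against a time-zero plate and DMSO control growth. Percent growth/viability was plotted against concentration to give Emax; negative values indicate lethality.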

[3] = test system: WiDr cells (colon cancer cells; wildtype SF3B1); assay: Cell viability assay (CellTiter-Glo, 72 hr), WiDr cells; type: cell-based; conditions: Homo sapiens; WiDr cells (wildtype SF3B1); read-out: WiDr GI50
Procedure, shortened: as §1

SF3b complexes = target: T1, SF3b complexes (Homo sapiens, UniProt O75533+Q7RTV0); assay: Scintillation proximity assay (SPA) with [3H]-labelled pladienolide probe; type: binding; conditions: wt SF3B1, read-out: SPA (wt SF3B1 cells) IC50
T1 construct: endogenous in cells
Procedure, shortened: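 SF3b complexes immunoprecipitated from nuclear extracts with anti-SF3B1 antibody on anti-mouse PVT SPA beads. Beads pre-incubated 30 min with varying PB or PB-OH, then 2.5 nM [3H]-PB added for 30 min; scintillation signal read and fit by non-linear regression.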

| SMILES | Emax [1] [%] | GI50 [1] [nM] | GI50 [2] [nM] | GI50 [3] [nM] | IC50 (SF3b complexes) [nM] |
| --- | --- | --- | --- | --- | --- |
| C/C(=C\C=C\[C@H](C)COC(=O)N1CCCC1)[C@H]1OC(=O)C[C@H](O)CC[C@@](C)(O)[C@@H](OC(=O)N2CCN(C3CCCCCC3)CC2)/C=C/[C@@H]1C | -93.5 | 11.7 | 862 | 11.8 | 11.6 |
| C/C(=C\C=C\[C@@H](C)c1ccccn1)[C@H]1OC(=O)C[C@H](O)CC[C@@](C)(O)[C@@H](OC(=O)N2C[C@H]3C[C@H]2CN3C)/C=C/[C@@H]1C | -29.4 | 56.4 | > 1000 | 41.5 | 12.3 |
| C/C(=C\C=C\[C@@H](C)CCC(=O)N1CCCC1)[C@H]1OC(=O)C[C@H](O)CC[C@@](C)(O)[C@@H](OC(=O)N2CCN(C3CCCCCC3)CC2)/C=C/[C@@H]1C | -86.9 | 3.25 | > 1000 | 12.7 | 5.11 |
| C/C(=C\C=C\[C@@H](C)COC(=O)N1CCCC1)[C@H]1OC(=O)CCCCC[C@@H](OC(=O)N2CCN(C)CC2)/C=C/[C@@H]1C | -90.5 | 6.74 | 2440 | 7.84 | 3.71 |
| CC(=O)O[C@H]1/C=C/[C@H](C)[C@@H](/C(C)=C/C=C/[C@@H](C)COC(=O)N2CC[C@H](O)C2)OC(=O)C[C@H](O)CC[C@@]1(C)O | -89.6 | 45.1 | > 10000 | 51.5 | 96.5 |
| C/C(=C\C=C\[C@@H](C)COC(=O)N1CCCC12COC2)[C@H]1OC(=O)C[C@H](O)CC[C@@](C)(O)[C@@H](OC(=O)N2CCN(C)CC2)/C=C/[C@@H]1C | 90.7 | 31.5 | > 1000 | 47.2 | 9.56 |
| C/C(=C\C=C\[C@@H](C)CNC(=O)N1CCC[C@H]1CO)[C@H]1OC(=O)C[C@H](O)CC[C@@](C)(O)[C@@H](OC(=O)N2CCN(C3CCCCCC3)CC2)/C=C/[C@@H]1C | -85 | 77.3 | > 1000 | 95.9 | 40.8 |
| CC(=O)O[C@H]1/C=C/[C@H](C)[C@@H](/C(C)=C/C=C/[C@@H](C)c2ccccn2)OC(=O)C[C@H](O)CC[C@@]1(C)O | -16.1 | 538 | > 10000 | 231 | 45.1 |
| C/C(=C\C=C\[C@H](C)c1ccccn1)[C@H]1OC(=O)C[C@H](O)CC[C@@](C)(O)[C@@H](OC(=O)N2CCN(C3CCCCCC3)CC2)/C=C/[C@@H]1C | -90 | 71.8 | > 1000 | 65 | 5.95 |
| C/C(=C\C=C\[C@@H](C)c1ccccn1)[C@H]1OC(=O)C[C@H](O)CC[C@@](C)(O)[C@@H](OC(=O)N2CCCN(C3CCCCCC3)CC2)/C=C/[C@@H]1C | -12.7 | 104 | > 1000 | 74.9 | 7.32 |
| C/C(=C\C=C\C(C)c1cccnn1)[C@H]1OC(=O)C[C@H](O)CC[C@@](C)(O)[C@@H](OC(=O)N2CCN(C)CC2)/C=C/[C@@H]1C (stereo partly shown) | -90.9 | 59.2 | > 1000 | 18.7 | 9.2 |
| C/C(=C\C=C\[C@@H](C)c1ccccn1)[C@H]1OC(=O)C[C@H](O)CC[C@@](C)(O)[C@@H](OC(=O)N2CCOCC2)/C=C/[C@@H]1C | 35.3 | 2550 | > 1000 | > 1000 | 480 |
| CC[C@H](O)[C@@H](C)NC(=O)OC[C@H](C)/C=C/C=C(\C)[C@H]1OC(=O)C[C@H](O)CC[C@@](C)(O)[C@@H](OC(C)=O)/C=C/[C@@H]1C | -92.8 | 327 | > 10000 | 555 | 53.4 |
| C/C(=C\C=C\[C@@H](C)COC(=O)N1CCCC1)[C@H]1OC(=O)CCCC[C@@](C)(O)[C@@H](OC(=O)N2CCN(C)CC2)/C=C/[C@@H]1C | -91.4 | 2.38 | > 1000 | 4.92 | 1.67 |
| C/C(=C\C=C\[C@@H](C)CNC(=O)N1CCCC1)[C@H]1OC(=O)C[C@H](O)CC[C@@](C)(O)[C@@H](OC(=O)N2CCN(C)CC2)/C=C/[C@@H]1C | -90.4 | 54.1 | > 1000 | 76.6 | 7.62 |
| CC(=O)O[C@H]1/C=C/[C@H](C)[C@@H](/C(C)=C/C=C/[C@@H](C)COC(=O)N2CCC2)OC(=O)C[C@H](O)CC[C@@]1(C)O | -91.8 | 44.7 | > 10000 | 138 | 10.7 |

| SMILES | Emax [1] [%] | GI50 [1] [nM] | GI50 [2] [nM] | GI50 [3] [nM] | IC50 (SF3b complexes) [nM] |
| --- | --- | --- | --- | --- | --- |
| CC(=O)O[C@H]1/C=C/[C@H](C)[C@@H](/C(C)=C/C=C/[C@@H](C)CO)OC(=O)C[C@H](O)CC[C@@]1(C)O | 47.5 | 6920 | > 10000 | 4040 | 326 |
| C/C(=C\C=C\[C@@H](C)c1ccccn1)[C@H]1OC(=O)C[C@H](O)CC[C@@](C)(O)[C@@H](OC(=O)N2CCCN(C)CC2)/C=C/[C@@H]1C | -23.1 | 84.9 | > 1000 | 33.1 | 6.87 |
| CC(=O)O[C@H]1/C=C/[C@H](C)[C@@H](/C(C)=C/C=C/[C@@H](C)COC(=O)N2CCC[C@H]2C)OC(=O)C[C@H](O)CC[C@@]1(C)O | -79.3 | 2.11 | > 1000 | 0.983 | 2.72 |
| C/C(=C\C=C\C(C)(C)COC(=O)N1CCCC1)[C@H]1OC(=O)C[C@H](O)CC[C@@](C)(O)[C@@H](OC(=O)N2CCN(C3CCCCCC3)CC2)/C=C/[C@@H]1C | -79.7 | 4.43 | 221 | 3.46 | 5.14 |
| C/C(=C\C=C\[C@@H](C)c1ccccn1)[C@H]1OC(=O)CCCCC[C@@H](OC(=O)N(C)C)/C=C/[C@@H]1C | 48.2 | 5790 | 7760 | 1060 | > 1200 |
| C/C(=C\C=C\[C@@H](C)CNC(=O)N1CCCC1)[C@H]1OC(=O)C[C@H](O)CC[C@@](C)(O)[C@@H](OC(=O)N2CCN(C3CCCCCC3)CC2)/C=C/[C@@H]1C | -90.9 | 19.8 | > 1000 | 27.6 | 5.24 |
| C/C(=C\C=C\[C@@H](C)COC(=O)N1CCC[C@H]1CO)[C@H]1OC(=O)CCCCC[C@@H](OC(=O)N2CCN(C)CC2)/C=C/[C@@H]1C | -62.8 | 2.9 | 423 | 2.52 | 3.61 |
| C/C(=C\C=C\[C@@H](C)c1ccccn1)[C@H]1OC(=O)C[C@H](O)CC[C@H](C)[C@@H](OC(=O)N2CCN(C)CC2)/C=C/[C@@H]1C | -94.3 | 8.07 | > 10000 | 15.3 | 3.78 |
| C/C(=C\C=C\C(C)c1ncccn1)[C@H]1OC(=O)C[C@H](O)CC[C@@](C)(O)[C@@H](OC(=O)N2CCN(C)CC2)/C=C/[C@@H]1C (stereo partly shown) | -22.2 | 155 | > 1000 | 60.1 | 38.4 |
| C/C(=C\C=C\[C@@H](C)COC(=O)N1CC[C@@H](C(=O)O)C1)[C@H]1OC(=O)C[C@H](O)CC[C@@](C)(O)[C@@H](OC(=O)N2CCN(C3CCCCCC3)CC2)/C=C/[C@@H]1C | -58.3 | 108 | > 1000 | 692 | 2.25 |
| CC(=O)O[C@H]1/C=C/[C@H](C)[C@@H](/C(C)=C/C=C/Cc2ccccn2)OC(=O)C[C@H](O)CC[C@@]1(C)O | 87.2 | > 10000 | > 10000 | 559 | > 1200 |
| C/C(=C\C=C\[C@@H](C)COC(=O)N1CCC[C@H]1CO)[C@H]1OC(=O)C[C@H](O)CC[C@@](C)(O)[C@@H](OC(=O)N2CCN(C3CCCCCC3)CC2)/C=C/[C@@H]1C | -70.4 | 2.39 | 40.1 | 2.73 | 7.03 |
| C/C(=C\C=C\[C@@H](C)COC(=O)N1CC[C@@H](O)C1)[C@H]1NC(=O)CCCCC[C@@H](OC(=O)N2CCN(C)CC2)/C=C/[C@@H]1C | 19.1 | 1180 | > 10000 | 376 | 267 |
| C/C(=C\C=C\C(C)c1ncccc1C)[C@H]1OC(=O)C[C@H](O)CC[C@@](C)(O)[C@@H](OC(=O)N2CCN(C3CCCCCC3)CC2)/C=C/[C@@H]1C (stereo partly shown) | -92.3 | 21.2 | > 1000 | 15.8 | 6.26 |
| C/C(=C\C=C\[C@@H](C)c1ccccn1)[C@H]1OC(=O)C[C@H](O)CC[C@H](C)[C@@H](OC(=O)N2CCN(C3CCCCCC3)CC2)/C=C/[C@@H]1C | -96.3 | 44 | 2430 | 33.2 | 10.6 |
| C/C(=C\C=C\[C@@H](C)COC(=O)N1CC[C@H](F)C1)[C@H]1OC(=O)C[C@H](O)CC[C@@](C)(O)[C@@H](OC(=O)N2CCN(C3CCCCCC3)CC2)/C=C/[C@@H]1C | -79.4 | 1.76 | > 1000 | 4.3 | 1.93 |

Reference: patent US11926619B2, “Certain pladienolide compounds and methods of use” (EISAI R&D MANAGEMENT CO., LTD., priority 2018, dated 2024)
